Where only a bound is given, the exact number is not on record here.

Compound `Cc1c(C(O)C(F)(F)F)oc2c(Br)cccc12` (stereo not drawn) had a melting point of 93 °C. Under `CC(C)Cc1ccc(C(C)C(=O)ON(C(N)=O)C(C)c2ccoc2)cc1` (stereo not drawn) stands 55 to 59 °C; under `Cc1nc(C)c(N2N=C(c3ccc([N+](=O)[O-])cc3)c3cc4c(cc3CC2C)OCO4)o1` (stereo not drawn), 76 to 78 °C; under `Cc1ccc(N2C(=O)C(O)=C(C(=O)c3ccc(C(C)C)cc3)C2c2ccc(Cn3ncnn3)cc2)nn1` (stereo not drawn), 271 °C.

The compound `C[C@H]1[C@H](O)C(F)(F)C(=O)N1c1ccc(C#N)c(Cl)c1` gave a melting point of 133 to 139 °C.

As for `CCOC(=O)c1ncn2c1CNC(=O)c1c(Cl)cccc1-2`, the melting point lay within 278 to 279 °C.

For the compound `CC1N(C)c2cc3[nH]c(=O)cc(C(F)(F)F)c3cc2C1(C)C` (stereo not drawn), the melting point lay within 248 to 249 °C. Under `CC(=O)ON(C)C(=O)C(C)Nc1c([N+](=O)[O-])cc(C)cc1[N+](=O)[O-]` (stereo not drawn) stands 137 to 138 °C; under `CCCC(=O)C1=C(O)CC(c2c(C)c(C)c3c(c2C)CC(C)(C)O3)CC1=O` (stereo not drawn), 83 °C. Turning to `O=C(c1cccs1)c1cnn2c(-c3cccc(-c4ccn(CCN5CCCC5)n4)c3)ccnc12`, the melting point is 63 °C. As for `CSC1=C(c2ccc(O)cc2)C(=O)c2cc(O)ccc21`, the figure is 90 to 92 °C; as for `Nc1cc(-c2c(-c3ccc(Cl)cc3)nc3ccc(N4CC5CNCC5C4)nn23)ccn1` (stereo not drawn), 267 to 270 °C.

Consider `O=Cc1cc(Cl)ccc1OCCc1ccccc1`, for which the melting point lay in the range of 73 to 74 °C. As for `CC(C)OC1(C(=O)O)C=C(Cl)C=C(Cl)C1` (stereo not drawn), the figure is 140 to 141 °C. As for `CCOC(=O)CCNC(=S)Nc1ccc2cn[nH]c2c1`, the figure is 145 °C. Under `COc1ccc(C(C)=O)cc1NC(=O)C(C)CCl` (stereo not drawn) stands 92 to 97 °C. For `COc1cc2c(CCN)c[nH]c2cc1Cl`, the melting point turned out to be 150 °C. Under `CCOC(=O)C(C(=O)OCC)c1cccc2ccccc12` stands 57 to 59 °C; under `Cc1ccc2c(n1)CC(c1ccccc1)CC2=O` (stereo not drawn), 79 to 81 °C.

In turn, `COc1cc2c(cc1O)CC(C)N(Cc1cc(OC)c(OC)c(OC)c1)C2` (stereo not drawn) came in with a melting point of 127 to 132 °C. As for `Cn1nc(C(=O)O)c(=O)n(C)c1=O`, the figure is 220 to 223 °C.

With `CC(=O)N1[C@@H](C)[C@@H]2C(=O)N(Cc3ccccc3)C(=O)[C@@H]2[C@@H]1c1ccc(C#N)cc1` (racemic), the melting point was 107 to 109 °C. Under `CNCc1csc(-c2cccc(C3=Nc4cc(N(C)C)c(Cl)cc4NC(=O)C3)c2)n1` stands 129 to 130 °C. As for `COC(=O)c1c(Cc2ccc(C(=O)O)cc2)c(=O)c2ccc(Cl)cc2n1-c1ccccc1`, the figure is 258 to 261 °C; as for `O=C(Nc1nc(Cl)cc(Cl)n1)NS(=O)(=O)Nc1ccccc1C(=O)C1CC1`, 114 to 116 °C. Under `CCOC(=O)c1c2n(c3cc(N4CCN(CC(C)=O)CC4)c(F)cc3c1=O)CS2` stands 170 to 172 °C; under `CS(=O)(=O)c1ccc(-c2ccccc2Oc2ccccc2)cc1`, 130 to 131 °C. Compound `Cc1cc2c(cc1O)C(C1(CC3CCCC3)CC1)N(C)CC2` (stereo not drawn) showed a melting point of 136 to 138 °C.

On to `CC(C)C(=O)NCC(=NNC(N)=S)c1ccccc1`, for which the melting point lay within 183 to 185 °C.

With `CC(=O)Oc1cnc(C(C)(C)C)nc1O`, the melting point came out at 164 °C. Under `O=S1(=O)c2cccc3cccc(c23)N1CCN1CC=C(c2c[nH]c3ccccc23)CC1` stands 208 °C; under `O=c1c2ccc(Cl)cc2[nH]c2c(O)nn(CCN3CCN(c4ccccc4)CC3)c(=O)c12`, 361 to 364 °C. Under `CCCOc1ncc(I)cc1-c1nc2c(CC)nn(CCN3CCOCC3)c2c(=O)[nH]1` stands 175 to 177 °C; under `N#Cc1nc(Cl)nc(N2CCS(=O)CC2)c1Cl`, 145 to 147 °C. The compound `CCCc1c(C(=O)C(C)C)c2ccc(C(=O)O)cc2n1Cc1ccccc1I` displayed a melting point of 210 °C. Under `N#Cc1nn(-c2c(Cl)cc(C(F)(F)F)cc2Cl)c(Cl)c1C1CC1(Br)Br` (stereo not drawn) stands 104 °C. As for `Cc1ccc(S(=O)(=O)OCC2Cc3cccc(C=Cc4ccccc4)c3O2)cc1` (stereo not drawn), the figure is 120 to 122 °C; as for `CC(C)(C)C(OCc1ccc(Cl)cc1)c1cncnc1` (stereo not drawn), 77 to 78.5 °C. Under `CC(=O)CC(=O)N1C(=N)CCN=C(c2ccccc2)c2cc(Cl)ccc21` stands 149 to 150 °C; under `CC(=O)c1ccc(OCCCOc2cc(N)c(C)cc2Cl)c(CCC(F)(F)F)c1O`, 111 to 113 °C; under `CC(C)(O)C#Cc1ncn2c1[C@@H]1CCCN1C(=O)c1ccccc1-2`, 128 °C. Regarding `CC(C(=O)O)N(C(=O)OC(C)(C)C)c1ccc(N)cc1` (stereo not drawn), the melting point lay within 128 to 133 °C. Compound `CS(=O)(=O)Cc1cnc2ccccc2c1O` came in with a melting point of 280 to 282 °C. In the case of `Nc1cc(-c2ccncc2)n[nH]c1=O`, the melting point was > 300 °C. As for `O=c1ccccn1[C@@H]1c2cc(C(F)(F)C(F)(F)C(F)(F)F)ccc2OC(CF)(CF)[C@H]1O` (relative stereo), the melting point was 111 to 113 °C. As for `C[C@@H]1[C@@H](NS(=O)(=O)c2ccc(F)cc2)CN1C(c1ccc(Cl)cc1)c1ccc(Cl)cc1`, the figure is 154 to 157 °C. As for `O=C1NC(c2ccc(Cl)cc2)Nc2ccccc21` (stereo not drawn), the figure is 190 °C; as for `CNC(=O)c1ccccc1Nc1nc(Nc2cc3c(cc2OC)CCOC(=O)N3C)ncc1Br`, 251 to 253 °C. Under `COc1ccc(-n2c(=O)c(O)nc3cccnc32)cc1` stands > 300 °C. For the compound `CCOC(=O)c1ccc2c(c1)sc1ccc(C)cc12`, the melting point lay in the range of 83 to 87 °C. Under `NC(=O)N[C@@H]1CCC[C@@H](O)c2sccc21` (relative stereo) stands 169 to 172 °C; under `Cc1c(SCc2cccs2)ccnc1CSc1nc2ccccc2[nH]1`, 131 to 133 °C; under `O=C(O)c1cn(C2CCCC2)c2c(F)c(F)c(F)cc2c1=O`, 206 to 207 °C. As for `COc1ccc(CCNC(N)=O)cc1OC1CCCC1`, the figure is 136 to 137 °C. As for `Cc1cc(=O)n(C)c2[nH]n(-c3ccccc3)c(=O)c12`, the figure is 179 to 181 °C; as for `COc1ccc(-c2cc(NCc3ccccc3)nnc2-c2ccc(OC)cc2)cc1`, 125 to 126 °C; as for `COc1ccc(C(=O)Sc2ccc(C(=O)O)cc2)cc1C12CC3CC(CC(C3)C1)C2`, 264 °C. `O=C(c1ccc(-c2ccccc2)cc1)N1Cc2ccccc2Oc2ccccc21` yielded a melting point of 93 to 95 °C. As for `COCCn1cc(-c2ccc3nnn(Cc4ccc5ncccc5c4)c3n2)cn1`, the figure is 162 to 164 °C; as for `O=C(NCCCO)c1cccc(-c2ccc3c(n2)N(Cc2ccc(Cl)cc2Cl)CC3)c1`, 145 to 146 °C. Under `CCCCCCCCCCCCCCCNC(=O)OCCOCCOC(=O)N(Cc1ccccn1)C(C)=O` stands 53 to 55 °C; under `Cc1nccn1-c1ccc(-c2cnc([C@H](Cc3ccccn3)N(C=O)c3cc4ccccc4[nH]3)n2C)cc1`, 207 to 211 °C; under `CCCCCCCc1ccc2cc(-c3ncc(CC)cn3)ccc2c1`, 62.3 to 63.1 °C. As for `O=[N+]([O-])c1cc(CCC(O)=S)cc(O)c1O`, the figure is 91 to 93 °C; as for `Cc1nc2cc(OCc3ccccc3)c(OCc3ccccc3)cc2nc1C(=O)O`, 198 to 200 °C. The compound `CC(C)(C)[Si](C)(C)Oc1ccc(CCNc2ncnc3nccnc23)cc1` yielded a melting point of 164 to 165 °C. `NS(=O)(=O)c1ccccc1N1CCCC1` came in with a melting point of 78 °C. As for `CCOC(=O)C(=CNC1CC1)C(=O)c1cc(F)c(F)c(F)c1F`, the figure is 63 to 65 °C; as for `COC(=O)C1(C(=O)O)CCc2cc(C3CCCCCC3)ccc21` (stereo not drawn), 140 to 141 °C; as for `CC(O)c1nnc(-c2ccc3occ(-c4cccc(OC(F)(F)F)c4)c3c2)o1` (stereo not drawn), 131 to 132 °C. Under `O=C1CCC(c2ccc(OCCBr)cc2)CC1` stands 91 to 92 °C. As for `CC(C)(C(Cl)c1ccc2c(c1)OCO2)[N+](=O)[O-]` (stereo not drawn), the figure is 63 to 66 °C; as for `NC(=O)C(Cc1ccccc1)=NNc1ccc(C(O)(C(F)(F)F)C(F)(F)F)cc1`, 211 to 213 °C; as for `COc1cc(C(C)=O)ccc1OCCN1C2CCC1CC(c1n[nH]c3ccccc13)C2` (stereo not drawn), 154 to 155 °C. For `CCNc1nc(-c2ccc(NC(=O)OCc3cccnc3)cc2)ccc1C(=O)NC`, the melting point fell in the range of 234 to 235 °C. As for `CCOC(=O)c1cc2cc(C#N)ccc2[nH]1`, the figure is 181 to 182 °C; as for `CC(C)c1ccc2cc(C(=O)Nc3ccc(OCC(C)(C)C)c(C#N)c3)sc2n1`, 244 to 245 °C; as for `C/C(=N\O)c1ccc(SSc2ccc(/C(C)=N/O)cn2)nc1`, 200 to 201 °C.

As to `O=C(O)C1Cc2c([nH]c3ccccc23)CN1C(=S)SCc1ccc([N+](=O)[O-])cc1` (stereo not drawn), the melting point lay within 194 to 195 °C. Under `CC(C)C(c1cncnc1C(F)(F)F)N(C)C(=O)Cc1ccccn1` (stereo not drawn) stands 99 to 100 °C; under `CCOc1nn(Cc2ccc(OCc3cccc(-c4ccccc4)n3)cc2)cc1CCC(=O)O`, 95 to 96 °C. As for `[N-]=[N+]=NS(=O)(=O)c1cccc(C(=O)Cl)c1`, the figure is 41 °C; as for `Cc1n[nH]c(=O)c(-c2c(F)cccc2Cl)c1-c1ccc(Cl)nc1`, 166 to 167 °C; as for `CCCCc1ncc(C=O)n1Cc1ccc(C(=O)OC)c(Cl)c1Cl`, 94 to 96 °C. In turn, `CCNC(=O)c1c([Si](C)(C)C)ccc(SC)c1Cl` came in with a melting point of 137 to 139 °C. As for `O=C1c2cc(O)ccc2OCC1Cc1c[nH]c2ccccc12` (stereo not drawn), the figure is 188 to 190 °C; as for `CNC(=O)Nc1cc(C(C)(C)COC)on1`, 65 to 67 °C. Under `CC(NC(=O)Cc1cc(F)cc(F)c1)C(=O)NC1C(=O)NC(Cc2ccccc2)c2ccccc21` (stereo not drawn) stands 106 to 107 °C.

Values taken from a melting point compilation (Tetko et al.; mined from patent text by program, amines drawn as free bases though some values may be those of a salt).
